Patent US9434686B2, “Deacetylase inhibitors and uses thereof” (President and Fellows of Harvard College, priority 2008, dated 2016)

Target: T1, HDAC6 (Homo sapiens, UniProt Q9UBN7)
T1 construct: endogenous in cells
T1 sequence (Q9UBN7 1-1215): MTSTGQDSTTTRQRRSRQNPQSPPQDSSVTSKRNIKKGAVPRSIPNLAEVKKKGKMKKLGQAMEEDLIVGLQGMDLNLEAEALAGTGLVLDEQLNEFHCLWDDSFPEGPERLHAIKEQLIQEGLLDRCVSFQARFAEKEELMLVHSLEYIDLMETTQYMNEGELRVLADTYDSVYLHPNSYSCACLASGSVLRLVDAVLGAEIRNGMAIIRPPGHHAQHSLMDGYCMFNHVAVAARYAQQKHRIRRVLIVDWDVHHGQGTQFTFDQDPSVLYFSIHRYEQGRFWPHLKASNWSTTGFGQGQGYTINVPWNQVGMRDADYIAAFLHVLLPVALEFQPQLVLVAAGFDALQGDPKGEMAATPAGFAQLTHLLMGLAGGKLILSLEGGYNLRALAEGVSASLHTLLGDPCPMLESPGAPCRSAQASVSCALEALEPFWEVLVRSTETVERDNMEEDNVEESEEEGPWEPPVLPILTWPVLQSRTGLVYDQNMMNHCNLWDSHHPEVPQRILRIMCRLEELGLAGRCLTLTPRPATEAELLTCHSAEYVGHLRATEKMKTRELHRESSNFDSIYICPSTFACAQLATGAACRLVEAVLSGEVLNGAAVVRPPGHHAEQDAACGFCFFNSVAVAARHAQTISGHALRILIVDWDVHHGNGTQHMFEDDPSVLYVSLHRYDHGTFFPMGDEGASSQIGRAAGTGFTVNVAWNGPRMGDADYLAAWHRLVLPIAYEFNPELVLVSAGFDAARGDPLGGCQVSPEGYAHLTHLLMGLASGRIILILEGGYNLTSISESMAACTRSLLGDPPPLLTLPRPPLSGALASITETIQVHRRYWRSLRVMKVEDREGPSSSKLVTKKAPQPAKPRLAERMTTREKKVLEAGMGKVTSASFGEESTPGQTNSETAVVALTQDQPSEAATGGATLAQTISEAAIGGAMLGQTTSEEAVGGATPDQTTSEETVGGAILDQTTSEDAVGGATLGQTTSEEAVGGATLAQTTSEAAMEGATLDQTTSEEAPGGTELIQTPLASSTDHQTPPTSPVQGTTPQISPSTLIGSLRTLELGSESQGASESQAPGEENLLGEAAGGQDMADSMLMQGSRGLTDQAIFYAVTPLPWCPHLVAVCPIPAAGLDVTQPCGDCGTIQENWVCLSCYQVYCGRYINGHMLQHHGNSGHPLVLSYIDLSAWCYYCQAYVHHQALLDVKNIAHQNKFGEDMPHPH
Test: High content acetylation assay (AcTubulin vs AcHistone) in cultured cells
Format: cell-based
Settings: dose-range, TDAC activity as surrogate for HDAC6 inhibition
Protocol: FIG. 2. High-throughput, high-content, quantitative detection method for identifying HDAC inhibitors. Cells are seeded in 384-well plates (2,000 cells/well) and treated with test compound, fixed, and then stained with Hoechst (nuclei), primary anti-AcTubulin monoclonal antibody and anti-AcHistone polyclonal antibody, then with compatible fluorophore-conjugated secondary antibodies. After automated image acquisition a custom analysis script identifies and masks cells, then derives quantitative fluorescence data from FITC (AcTubulin) and rhodamine (AcHistone) channels (MetaXPress; Molecular Devices).
FIG. 3. WT-161 Induction of AcTubulin (Red) and AcHistone (Blue) by HCS. As described in FIG. 2, the high content acetylation assay was employed to determine the comparative induction of acetylated histones versus acetylated tubulin across a dose-range of WT-161.
FIG. 4. […] Dose-response data from FIG. 3 have been used to generate EC50 values of cellular histone and tubulin acetylation effects of WT-161. […] HDAC activity is used to indicate biological activity of proteins mediating histone deacetylation, as this is a cellular assay measuring global effects on acetylation. TDAC activity is a surrogate measurement for HDAC6 inhibition in cultured cells.

Q: How did the “Comparative induction of acetylated tubulin versus acetylated histones (cellular selectivity)” value turn out when `O=C(CCCCCCC(=O)N/N=C/c1ccc(N(c2ccccc2)c2ccccc2)cc1)NO` [WT-161] was run?
A: Selective Inhibition of HDAC6
